From US20210038579A1, “Treatment Of Patients With Classic Fabry Disease” (Amicus Therapeutics, Inc., priority 2018, published 2021) come the findings set out here.

Assay in all cases: HEK assay: α-Gal A activity in HEK-293 cell lysate with migalastat
Common to all, as to type: cell-based

Test [1] concerns the target T1, α-Gal A mutant form p.Asp33Gly (c.98 A > G) (Homo sapiens, UniProt P06280, D33G).
T1 construct: expressed in transfected cells; host or cells: HEK-293
T1 sequence (P06280 32-429 D33G): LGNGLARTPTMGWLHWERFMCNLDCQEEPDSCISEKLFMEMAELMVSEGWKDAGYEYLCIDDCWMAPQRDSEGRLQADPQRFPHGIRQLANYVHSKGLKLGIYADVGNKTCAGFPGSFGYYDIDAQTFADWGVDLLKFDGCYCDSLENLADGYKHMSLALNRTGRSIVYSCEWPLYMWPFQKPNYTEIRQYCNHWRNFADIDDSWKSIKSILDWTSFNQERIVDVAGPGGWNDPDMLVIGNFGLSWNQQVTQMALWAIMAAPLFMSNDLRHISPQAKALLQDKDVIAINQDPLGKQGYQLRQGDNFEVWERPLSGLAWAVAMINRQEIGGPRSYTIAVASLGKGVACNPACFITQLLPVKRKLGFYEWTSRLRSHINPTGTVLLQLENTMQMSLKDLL
On the procedure: (§1) Such mutations are also referred to herein as “HEK assay amenable” mutations.
(§2) In this assay, cDNA constructs are created. The corresponding α-Gal A mutant forms are transiently expressed in HEK-293 cells. Cells are then incubated±migalastat (17 nM to 1 mM) for 4 to 5 days. After, α-Gal A levels are measured in cell lysates using a synthetic fluorogenic substrate (4-MU-α-Gal) or by western blot. This has been done for known disease-causing missense or small in-frame insertion/deletion mutations.

Test [2] concerns the target T2, α-Gal A mutant form p.Gly373Ser (c.1117 G > A) (Homo sapiens, UniProt P06280, G373S).
T2 construct: expressed in transfected cells; host or cells: HEK-293
T2 sequence (P06280 32-429 G373S): T1 sequence (P06280 32-429 D33G) with G2D, G342S
How it is done: as §1, §2

In test [3] the target is T3, α-Gal A mutant form p.Asp322Glu (c.966 C > A) (Homo sapiens, UniProt P06280, D322E).
T3 construct: expressed in transfected cells; host or cells: HEK-293
T3 sequence (P06280 32-429 D322E): T1 sequence (P06280 32-429 D33G) with G2D, D291E
On the procedure: as §1, §2

The target of test [4] is T4, α-Gal A mutant form p.Leu243Phe (c.729 G > C) (Homo sapiens, UniProt P06280, L243F).
T4 construct: expressed in transfected cells; host or cells: HEK-293
T4 sequence (P06280 32-429 L243F): T1 sequence (P06280 32-429 D33G) with G2D, L212F
How it is done:
as §1, §2

Test [5] deals with T5, α-Gal A mutant form p.Ala156Thr (c.466 G > A) (Homo sapiens, UniProt P06280, A156T).
T5 construct: expressed in transfected cells; host or cells: HEK-293
T5 sequence (P06280 32-429 A156T): T1 sequence (P06280 32-429 D33G) with G2D, A125T
On the procedure:
as §1, §2

[6] abbreviates: +10 μM migalastat, HEK-293 cell lysate, mean ± SEM, n = 20.
Where [7] appears, read: HEK293, 10 μM migalastat minus baseline, read-out: Absolute increase at 10 μM (% WT).

Numbering of substitutions follows the chain as printed.

Take `OC[C@H]1NC[C@H](O)[C@@H](O)[C@H]1O` [migalastat]: the “α-Gal A activity at 10 μM (fold over baseline)” value in test [1] (10 μM migalastat) is on record as 2.42 fold over baseline; in test [2] (10 μM migalastat) it was 3.32 fold over baseline; in test [3] (10 μM migalastat) it was 3.98 fold over baseline; in test [4] (10 μM migalastat), 5.33 fold over baseline; in test [5] (10 μM migalastat), 7.75 fold over baseline. Moreover, the “+Migalastat α-Gal A activity” value in test [1] (setting [6]) was determined as 24033 ± 865 nmol/mg/h; in test [2] (setting [6]), 5128 ± 288 nmol/mg/h; in test [3] (setting [6]), 9554 ± 667 nmol/mg/h; in test [4] (setting [6]), 14370 ± 618 nmol/mg/h; in test [5] (setting [6]) it was 7034 ± 289 nmol/mg/h. Besides, the “+Migalastat α-Gal A activity % WT” value turned out to be 70.6 ± 2.4 % WT in test [1] (setting [6]); 15.7 ± 0.8 % WT in test [2] (setting [6]); 26.8 ± 1.3 % WT in test [3] (setting [6]); 42.3 ± 1.4 % WT in test [4] (setting [6]); 21.9 ± 0.9 % WT in test [5] (setting [6]). For the same compound, the activation at 10 µM was 41.3% in test [1] (setting [7]); 10.9% in test [2] (setting [7]); 20% in test [3] (setting [7]); 34.4% in test [4] (setting [7]); 19.1% in test [5] (setting [7]).
